Measurements from publication PMC11277489, “Novel Piperazine Derivatives of Vindoline as Anticancer Agents” (International Journal of Molecular Sciences, 2024).

Experiments:
U251 = experiment: NCI60 one-dose screen (10 μM), CNS Cancer; assay type: cell-based; conditions: Homo sapiens, U-251; 10 μM; U251, CNS Cancer; read-out: Growth percent rate
DU-145 = experiment: NCI60 one-dose screen (10 μM), Prostate Cancer; assay type: cell-based; conditions: Homo sapiens; 10 μM; DU-145, Prostate Cancer; read-out: Growth percent rate
HCT-116 = experiment: NCI60 one-dose screen (10 μM), Colon Cancer; assay type: cell-based; conditions: Homo sapiens; 10 μM; HCT-116, Colon Cancer; read-out: Growth percent rate
OVCAR-8 = experiment: NCI60 one-dose screen (10 μM), Ovarian Cancer; assay type: cell-based; conditions: Homo sapiens; 10 μM; OVCAR-8, Ovarian Cancer; read-out: Growth percent rate
SK-MEL-2 = experiment: NCI60 one-dose screen (10 μM), Melanoma; assay type: cell-based; conditions: Homo sapiens; 10 μM; SK-MEL-2, Melanoma; read-out: Growth percent rate
SF-268 = experiment: NCI60 one-dose screen (10 μM), CNS Cancer; assay type: cell-based; conditions: Homo sapiens; 10 μM; SF-268, CNS Cancer; read-out: Growth percent rate
[1] = test system: 60 human tumor cell lines (NCI60); experiment: NCI60 one-dose screen (10 μM), whole panel; assay type: cell-based; conditions: 10 μM; mean over 60 human cancer cell lines; read-out: Growth percent rate, Mean
MDA-MB-435 = experiment: NCI60 one-dose screen (10 μM), Melanoma; assay type: cell-based; conditions: Homo sapiens; 10 μM; MDA-MB-435, Melanoma; read-out: Growth percent rate
NCI-H23 = experiment: NCI60 one-dose screen (10 μM), Non-small Cell Lung Cancer; assay type: cell-based; conditions: Homo sapiens; 10 μM; NCI-H23, Non-small Cell Lung Cancer; read-out: Growth percent rate
SN12C = experiment: NCI60 one-dose screen (10 μM), Renal Cancer; assay type: cell-based; conditions: Homo sapiens, 10 μM, Renal Cancer, read-out: Growth percent rate
HS 578T = experiment: NCI60 one-dose screen (10 μM), Breast Cancer; assay type: cell-based; conditions: Homo sapiens; 10 μM; HS 578T, Breast Cancer; read-out: Growth percent rate
CCRF-CEM = experiment: NCI60 one-dose screen (10 μM), Leukemia; assay type: cell-based; conditions: Homo sapiens, 10 μM, Leukemia, read-out: Growth percent rate
HL-60(TB) = experiment: NCI60 one-dose screen (10 μM), Leukemia; assay type: cell-based; conditions: Homo sapiens; 10 μM; HL-60(TB), Leukemia; read-out: Growth percent rate
NCI-H322M = experiment: NCI60 one-dose screen (10 μM), Non-small Cell Lung Cancer; assay type: cell-based; conditions: Homo sapiens, 10 μM, Non-small Cell Lung Cancer, read-out: Growth percent rate
SK-MEL-28 = experiment: NCI60 one-dose screen (10 μM), Melanoma; assay type: cell-based; conditions: Homo sapiens; 10 μM; SK-MEL-28, Melanoma; read-out: Growth percent rate
MOLT-4 = experiment: NCI60 one-dose screen (10 μM), Leukemia; assay type: cell-based, human; conditions: Homo sapiens; 10 μM; MOLT-4, Leukemia; read-out: Growth percent rate
HCT-15 = experiment: NCI60 one-dose screen (10 μM), Colon Cancer; assay type: cell-based; conditions: Homo sapiens; 10 μM; HCT-15, Colon Cancer; read-out: Growth percent rate
K-562 = experiment: NCI60 one-dose screen (10 μM), Leukemia; assay type: cell-based; conditions: Homo sapiens, K562; 10 μM; K-562, Leukemia; read-out: Growth percent rate
NCI-H522 = experiment: NCI60 one-dose screen (10 μM), Non-small Cell Lung Cancer; assay type: cell-based; conditions: Homo sapiens; 10 μM; NCI-H522, Non-small Cell Lung Cancer; read-out: Growth percent rate
SK-MEL-5 = experiment: NCI60 one-dose screen (10 μM), Melanoma; assay type: cell-based, human; conditions: Homo sapiens; 10 μM; SK-MEL-5, Melanoma; read-out: Growth percent rate
SW-620 = experiment: NCI60 one-dose screen (10 μM), Colon Cancer; assay type: cell-based; conditions: Homo sapiens; 10 μM; SW-620, Colon Cancer; read-out: Growth percent rate
CAKI-1 = experiment: NCI60 one-dose screen (10 μM), Renal Cancer; assay type: cell-based; conditions: Homo sapiens; 10 μM; CAKI-1, Renal Cancer; read-out: Growth percent rate
NCI-H460 = experiment: NCI60 one-dose screen (10 μM), Non-small Cell Lung Cancer; assay type: cell-based; conditions: Homo sapiens; 10 μM; NCI-H460, Non-small Cell Lung Cancer; read-out: Growth percent rate
OVCAR-4 = experiment: NCI60 one-dose screen (10 μM), Ovarian Cancer; assay type: cell-based; conditions: Homo sapiens; 10 μM; OVCAR-4, Ovarian Cancer; read-out: Growth percent rate
A549/ATCC = experiment: NCI60 one-dose screen (10 μM), Non-small Cell Lung Cancer; assay type: cell-based; conditions: Homo sapiens; 10 μM; A549/ATCC, Non-small Cell Lung Cancer; read-out: Growth percent rate
SF-539 = experiment: NCI60 one-dose screen (10 μM), CNS Cancer; assay type: cell-based, human; conditions: Homo sapiens; 10 μM; SF-539, CNS Cancer; read-out: Growth percent rate
M14 = experiment: NCI60 one-dose screen (10 μM), Melanoma; assay type: cell-based; conditions: Homo sapiens; 10 μM; M14, Melanoma; read-out: Growth percent rate
RPMI-8226 = experiment: NCI60 one-dose screen (10 μM), Leukemia; assay type: cell-based; conditions: Homo sapiens; 10 μM; RPMI-8226, Leukemia; read-out: Growth percent rate
MCF7 = experiment: NCI60 one-dose screen (10 μM), Breast Cancer; assay type: cell-based; conditions: Homo sapiens; 10 μM; MCF7, Breast Cancer; read-out: Growth percent rate
RXF 393 = experiment: NCI60 one-dose screen (10 μM), Renal Cancer; assay type: cell-based, human; conditions: Homo sapiens; 10 μM; RXF 393, Renal Cancer; read-out: Growth percent rate
COLO 205 = experiment: NCI60 one-dose screen (10 μM), Colon Cancer; assay type: cell-based, human; conditions: Homo sapiens; 10 μM; COLO 205, Colon Cancer; read-out: Growth percent rate
ACHN = experiment: NCI60 one-dose screen (10 μM), Renal Cancer; assay type: cell-based; conditions: Homo sapiens, 10 μM, Renal Cancer, read-out: Growth percent rate
EKVX = experiment: NCI60 one-dose screen (10 μM), Non-small Cell Lung Cancer; assay type: cell-based; conditions: Homo sapiens, 10 μM, Non-small Cell Lung Cancer, read-out: Growth percent rate
HT29 = experiment: NCI60 one-dose screen (10 μM), Colon Cancer; assay type: cell-based; conditions: Homo sapiens, HT-29; 10 μM; HT29, Colon Cancer; read-out: Growth percent rate
HCC-2998 = experiment: NCI60 one-dose screen (10 μM), Colon Cancer; assay type: cell-based; conditions: Homo sapiens; 10 μM; HCC-2998, Colon Cancer; read-out: Growth percent rate
OVCAR-3 = experiment: NCI60 one-dose screen (10 μM), Ovarian Cancer; assay type: cell-based; conditions: Homo sapiens; 10 μM; OVCAR-3, Ovarian Cancer; read-out: Growth percent rate
786–0 = experiment: NCI60 one-dose screen (10 μM), Renal Cancer; assay type: cell-based; conditions: Homo sapiens; 10 μM; 786-0, Renal Cancer; read-out: Growth percent rate
A498 = experiment: NCI60 one-dose screen (10 μM), Renal Cancer; assay type: cell-based; conditions: Homo sapiens; 10 μM; A498, Renal Cancer; read-out: Growth percent rate
IGROV1 = experiment: NCI60 one-dose screen (10 μM), Ovarian Cancer; assay type: cell-based; conditions: Homo sapiens, IGROV-1; 10 μM; IGROV1, Ovarian Cancer; read-out: Growth percent rate
UACC-257 = experiment: NCI60 one-dose screen (10 μM), Melanoma; assay type: cell-based; conditions: Homo sapiens; 10 μM; UACC-257, Melanoma; read-out: Growth percent rate
SNB-75 = experiment: NCI60 one-dose screen (10 μM), CNS Cancer; assay type: cell-based, human; conditions: Homo sapiens; 10 μM; SNB-75, CNS Cancer; read-out: Growth percent rate
HOP-62 = experiment: NCI60 one-dose screen (10 μM), Non-small Cell Lung Cancer; assay type: cell-based; conditions: Homo sapiens; 10 μM; HOP-62, Non-small Cell Lung Cancer; read-out: Growth percent rate

CC[C@]12C=CCN3CC[C@@]4(c5ccc(OC)cc5N(C)[C@H]4[C@@](O)(C(=O)OC)[C@@H]1OC(=O)CCC(=O)N1CCN(Cc4ccc(C(F)(F)F)cc4)CC1)[C@@H]32 [Compound 29]
activity at 10 µM (U251): 19.1% | activity at 10 µM (DU-145): 20.3% | activity at 10 µM (HCT-116): 7.59% | activity at 10 µM (OVCAR-8): 23.4% | activity at 10 µM (SK-MEL-2): -63.4% | activity at 10 µM (SF-268): 14.6% | activity at 10 µM [1]: -1.41% | activity at 10 µM (MDA-MB-435): 3.59% | activity at 10 µM (NCI-H23): 29.4% | activity at 10 µM (SN12C): 14.8% | activity at 10 µM (HS 578T): 0.42% | activity at 10 µM (CCRF-CEM): 3.8% | activity at 10 µM (HL-60(TB)): -58.2% | activity at 10 µM (NCI-H322M): 35.4% | activity at 10 µM (SK-MEL-28): 7.72% | activity at 10 µM (MOLT-4): -4.63% | activity at 10 µM (HCT-15): 15% | activity at 10 µM (K-562): -12.5% | activity at 10 µM (NCI-H522): 28.2% | activity at 10 µM (SK-MEL-5): -90.9% | activity at 10 µM (SW-620): 9.15% | activity at 10 µM (CAKI-1): 6.02% | activity at 10 µM (NCI-H460): -11.4% | activity at 10 µM (OVCAR-4): 10.5% | activity at 10 µM (A549/ATCC): 25.3% | activity at 10 µM (SF-539): 11.7% | activity at 10 µM (M14): -20.3% | activity at 10 µM (RPMI-8226): -14.2% | activity at 10 µM (MCF7): 10.9% | activity at 10 µM (RXF 393): 10.2% | activity at 10 µM (COLO 205): -91% | activity at 10 µM (ACHN): 3.7% | activity at 10 µM (EKVX): 25.4% | activity at 10 µM (HT29): -10% | activity at 10 µM (HCC-2998): -52.6% | activity at 10 µM (OVCAR-3): 0.33% | activity at 10 µM (786–0): 11.9% | activity at 10 µM (A498): 20.1% | activity at 10 µM (IGROV1): -31.2% | activity at 10 µM (UACC-257): 22.6% | activity at 10 µM (SNB-75): 7.51% | activity at 10 µM (HOP-62): 22%

CC[C@]12C=CCN3CC[C@@]4(c5ccc(OC)cc5N(C)[C@H]4[C@@](O)(C(=O)OC)[C@@H]1OC(=O)CCC(=O)N1CCN(Cc4ccc(F)cc4)CC1)[C@@H]32 [Compound 30]
activity at 10 µM (U251): 71.6% | activity at 10 µM (DU-145): 82.6% | activity at 10 µM (HCT-116): 67.8% | activity at 10 µM (OVCAR-8): 73.7% | activity at 10 µM (SK-MEL-2): 90.2% | activity at 10 µM (SF-268): 50.8% | activity at 10 µM [1]: 71.4% | activity at 10 µM (MDA-MB-435): 85.7% | activity at 10 µM (NCI-H23): 83.4% | activity at 10 µM (SN12C): 71.2% | activity at 10 µM (HS 578T): 78.5% | activity at 10 µM (CCRF-CEM): 61.4% | activity at 10 µM (HL-60(TB)): 82.2% | activity at 10 µM (NCI-H322M): 97.2% | activity at 10 µM (SK-MEL-28): 104% | activity at 10 µM (MOLT-4): 59.4% | activity at 10 µM (HCT-15): 79.5% | activity at 10 µM (K-562): 65.2% | activity at 10 µM (NCI-H522): 59.7% | activity at 10 µM (SK-MEL-5): 62.6% | activity at 10 µM (SW-620): 102% | activity at 10 µM (CAKI-1): 28.1% | activity at 10 µM (NCI-H460): 83.4% | activity at 10 µM (OVCAR-4): 56.4% | activity at 10 µM (A549/ATCC): 55.4% | activity at 10 µM (SF-539): 78.7% | activity at 10 µM (M14): 61% | activity at 10 µM (RPMI-8226): 46.3% | activity at 10 µM (MCF7): 62.2% | activity at 10 µM (RXF 393): 60.1% | activity at 10 µM (COLO 205): 66.7% | activity at 10 µM (ACHN): 71.3% | activity at 10 µM (EKVX): 60.2% | activity at 10 µM (HT29): 60.5% | activity at 10 µM (HCC-2998): 85.3% | activity at 10 µM (OVCAR-3): 63.7% | activity at 10 µM (786–0): 84.2% | activity at 10 µM (A498): 110% | activity at 10 µM (IGROV1): 68.4% | activity at 10 µM (UACC-257): 86% | activity at 10 µM (SNB-75): 64.5% | activity at 10 µM (HOP-62): 88.4%
